From publication PMC3409115, “Diverse Inhibitor Chemotypes Targeting Trypanosoma cruzi CYP51” (PLoS Neglected Tropical Diseases, 2012)
Like-named read-outs stand apart in the source and are kept apart here.

How the values were obtained:
[1] = tested on: T. cruzi-infected skeletal myoblasts (intracellular amastigotes); test: Hit cross-validation in T. cruzi-infected mammalian cells (image-based assay); format: cell-based, Trypanosoma cruzi
Procedure: Bovine embryo skeletal muscle cells or mouse C2C12 myoblasts (ATCC#CRL-1772) used in the cross-validation assay, were cultivated respectively in RPMI 1640 medium supplemented with 5% horse serum and Dulbecco's Modified Eagle's Medium H-21 containing 4.5 g/l glucose (DMEM H-21) (Cell Culture Facility, UCSF), supplemented with 5% fetal bovine serum (FBS) (Sigma Chemical Co., St. Louis, MO, USA), 25 mM HEPES, 2 mM L-glutamine, 100 U/ml penicillin, 100 µg/ml streptomycin. T. cruzi CAI-72 trypomastigotes were obtained from supernatant of infected cultures 4 to 7 days post-infection. Cultures were maintained at 37°C in an atmosphere of 5% CO2. To harvest parasites, the supernatant of infected cultures containing released trypomastigotes was collected and centrifuged at 600 rpm for 5 min to remove cell debris; the pellet was then discarded and the trypomastigotes remaining in the media were concentrated by spinning the culture tubes at 3300 rpm for 15 minutes. The parasite pellet was re-suspended in 2–5 ml of fresh media. Trypomastigote concentration was determined using a Neubauer hemocytometer.
(§1) Compound cross-validation in T. cruzi infected skeletal myoblasts (bovine embryo skeletal muscle or C2C12 lineage) was performed according to the protocol adapted from Engel and co-authors. Compounds stored as 10 mM stocks in DMSO were freshly diluted immediately prior to use. […] To prepare plates for the assay, skeletal myoblasts cultured in […] flasks were washed once with phosphate buffered saline (PBS) and then incubated with 0.25% trypsin in PBS for 1–3 minutes for detachment. The trypsin solution was removed and myoblasts were released from the flask bottom. Fresh medium was added and cell concentration was determined using a Neubauer hemocytometer. Myoblasts in 50 µl of culture medium were transferred to the clear-bottom wells of black 96-well plates (Greiner Bio-One, #655090) at a density of 1500 cells/well and infected with 50 µl trypomastigote culture at 7500 parasites/well (1∶5 ratio). The cells were allowed to adhere and spread for 24 h in the incubator before the media was removed and 100 µl of fresh medium containing 0, 0.04, 0.12, 0.37, 1.10, 3.30 or 10 µM of test compound was added to each well, followed by 72 h incubation at 37°C in an atmosphere of 5% CO2. Posaconazole was used as a positive control at the same concentrations as the test compounds. The cells were then fixed by adding 100 µl/well of 8% formaldehyde in PBS, resulting in a 4% working concentration of formaldehyde. To stain the nucleus of the host cell and the nucleus and kinetoplast of parasites, cell membranes were first permeabilized by washing once with 100 µl of 0.1% Triton X-100 in PBS, then treated for 1 h with 0.2 µg/ml of the fluorescent DNA dye, 4,6-diamidino-2-phenylindole (DAPI), followed by one wash with PBS. The fixed plates were kept at 4°C and protected from light until images were acquired.
(§2) Plates were allowed to equilibrate to room temperature and images were acquired by the IN Cell Analyzer 2000 (GE Healthcare) with a 20× objective, 5 fields per well, with 350/50 nm and 460/40 nm fluorescent excitation and emission filters. In the absence of drug cytotoxicity, at least 800 cells were imaged and counted per well. The images were processed and analyzed by IN Cell Analyzer Developer 1.6 software. The size parameters used to segment host and parasite organelles were 125 µm^2 for host nucleus, and 1–2 µm^2 for parasite nucleus/kinetoplast. Since DAPI also strongly stains host heterochromatin regions that display as shapes resembling parasites ( Figure 3 ), particles co-localized to host nuclei were excluded from quantification, while parasite aggregates near the host nucleus were counted as infected cells.

T. cruzi CYP51 = target: T1, T. cruzi CYP51 (Trypanosoma cruzi, UniProt Q7Z1V1); test: HTS spectral-mode binding screen, type II difference spectra scored 0-5
T1 construct: had the first 21 residues upstream of K22 replaced with the fragment MAKKKKK; His6 (C); made in house
T1 sequence (Q7Z1V1 15-481, looked up, natural form): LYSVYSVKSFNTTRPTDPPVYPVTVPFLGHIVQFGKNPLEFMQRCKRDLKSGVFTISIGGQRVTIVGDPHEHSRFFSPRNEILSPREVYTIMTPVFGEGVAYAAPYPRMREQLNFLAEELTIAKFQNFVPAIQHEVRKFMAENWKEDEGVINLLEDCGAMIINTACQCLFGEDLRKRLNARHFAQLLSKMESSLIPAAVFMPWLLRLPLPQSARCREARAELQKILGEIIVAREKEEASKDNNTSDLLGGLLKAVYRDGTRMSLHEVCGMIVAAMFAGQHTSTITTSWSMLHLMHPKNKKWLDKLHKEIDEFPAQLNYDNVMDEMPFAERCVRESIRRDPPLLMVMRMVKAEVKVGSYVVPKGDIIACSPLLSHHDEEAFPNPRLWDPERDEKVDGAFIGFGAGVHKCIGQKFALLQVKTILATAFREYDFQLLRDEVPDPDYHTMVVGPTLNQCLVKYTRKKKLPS

[2] = tested on: host cell (skeletal myoblasts, bovine embryo skeletal muscle or C2C12); test: Host cell toxicity in the cross-validation assay; format: cell-based; conditions: host cells in cross-validation assay, up to 10 µM
Procedure: as §1
as §2, with “cells. Numbers of host cells and intracellular amastigotes were determined based on host cell and parasite nucleus and parasite kinetoplast quantification, providing a measure of growth inhibition during the first 72 h of post-infection treatment compared to untreated controls.” for “cells.”
^aToxicity was assessed as the highest percentage of host cell growth inhibition caused by compound treatment. Scores are assigned as 1-<20%; 2-21-30%; 3- 31-40%; 4-41-50% and 5->50% growth inhibition.

[3] = T. cruzi-infected myoblasts, 72 h treatment, read-out: EC50 against T. cruzi parasites in HTS assay used to rank order the hits
[4] = Trypanosoma cruzi, Myoblast, 72 h, T. cruzi-infected myoblasts, 72 h treatment, read-out: EC50 against T. cruzi parasites in HTS assay used to rank order the hits
[5] = type II difference spectra scored 0-5, second highest rated hit compound cluster
[6] = spectral mode, four serial dilutions 2 µM to 12.5 µM, 2 µM CYP51
[7] = Trypanosoma cruzi, Myoblast, 72 h, read-out: EC50 against T. cruzi parasites in HTS assay used to rank order the hits

Row | Structure (SMILES) | EC50 [1, 3] | EC50 [1, 4] | HTS binding score (T. cruzi CYP51; [5]) | Toxicity score (highest percentage of host cell growth inhibition) [2] | HTS binding score (T. cruzi CYP51; [6]) | EC50 [1, 7] | EC50 ([1]; Trypanosoma cruzi, Myoblast, 72 h, read-out: EC50 averaged from two independent cross-validation assays for individually repurchased hits)
1 | CC1=C(C(=O)OC2CCCC2)C(c2ccncc2)C2=C(O)CC(C)(C)CC2=N1 (stereo not shown) [Compound 2] | 0.306 µM | 0.31 µM | 4 | 4 (4-41-50%) |  |  | 
2 | N#CC1=C(N)OC2=C(C(=O)CC(c3ccccc3)C2)C1c1cccnc1 (stereo not shown) [Compound 7] | 0.667 µM | 0.67 µM | 3 | 4 (4-41-50%) | 3 |  | 
3 | OC(/C=C/c1ccccc1)(Cn1ccnc1)c1ccncc1 (stereo not shown) [Compound 12] |  |  |  | 1 (1-<20%) | 1 | 1.1 µM | 
4 | Cc1ccc(CNC(=O)C(=O)NCC(c2cccnc2)N2CCN(Cc3ccccc3)CC2)cc1 (stereo not shown) [Compound 14] |  |  |  | 4 (4-41-50%) | 2 | 1.67 µM | 
5 | COc1ccc(CNc2nc3ccccc3c3nc(-c4ccncc4)nn23)cc1 [Compound 15] |  |  |  | 3 (3- 31-40%) | 5 | 1.93 µM | 1.93 µM
6 | Brc1ccc(-c2csc(-c3ccncc3)n2)cc1 [Compound 18] |  |  |  | 1 (1-<20%) | 3 | 2.38 µM | 
7 | COC(=O)c1ccc(-c2ccncc2)s1 [Compound 21] |  |  |  | 2 (2-21-30%) | 4 | 2.74 µM | 
8 | Cc1ccc(NC(=O)c2sc3nc(-c4ccncc4)ccc3c2N)cc1Cl [Compound 22] |  |  |  | 2 (2-21-30%) | 2 | 2.86 µM | 
9 | OC(/C=C/c1cccc(C(F)(F)F)c1)(Cn1ccnc1)c1cccnc1 (stereo not shown) [Compound 23] |  |  |  | 1 (1-<20%) | 1 | 2.89 µM | 
10 | c1ccc(CC(NCc2ccncc2)c2ccccc2)cc1 (stereo not shown) [Compound 27] |  |  |  | 1 (1-<20%) | 5 | 4.82 µM | 
11 | CCOC(=O)C1=C(C)N(C)C(C)=C(C(=O)OCC)C1c1ccncc1 [Compound 29] |  |  |  | 1 (1-<20%) | 5 | 5.18 µM | 
12 | CC(C)=CCCC1=CCC2(COC(c3cccnc3)OC2)C(C)C1 (stereo not shown) [Compound 31] |  |  |  | 1 (1-<20%) | 2 | 6.39 µM | 
13 | O=S(=O)(NCc1csc(-c2cccnc2)n1)c1ccc(Br)cc1 [Compound 32] |  |  |  | 2 (2-21-30%) |  | 6.5 µM | 
14 | C/C(=N\OC(=O)c1c(-c2ccccc2Cl)noc1C)c1ccncc1 [Compound 33] |  |  |  | 3 (3- 31-40%) |  | 6.78 µM | 
15 | O=C(c1ccc(Cl)cc1Cl)C(c1cccnc1)C(O)C(Cl)(Cl)Cl (stereo not shown) [Compound 34] |  |  |  | 2 (2-21-30%) | 5 | 6.87 µM | 
16 | CC(C)/C=C1\CC/C(=C\c2ccncc2)C1=O [Compound 35] |  |  |  | 1 (1-<20%) |  | 7.15 µM | 
17 | c1ccc2c(c1)-c1ccccc1C2n1ccnc1 [Compound 36] |  |  |  | 3 (3- 31-40%) | 1 | 7.24 µM | 

Row | Structure (SMILES) | EC50 [1, 3] | EC50 [1, 4] | HTS binding score (T. cruzi CYP51; [5]) | Toxicity score (highest percentage of host cell growth inhibition) [2] | HTS binding score (T. cruzi CYP51; [6]) | EC50 [1, 7] | EC50 ([1]; Trypanosoma cruzi, Myoblast, 72 h, read-out: EC50 averaged from two independent cross-validation assays for individually repurchased hits)
18 | Oc1cccc(Nc2nc(-c3ccncc3)cs2)c1 [Compound 37] |  |  |  | 4 (4-41-50%) |  | 7.33 µM | 
19 | Clc1ccc(Cl)c(SCCc2ccncc2)c1 [Compound 38] |  |  |  | 2 (2-21-30%) |  | 7.41 µM | 
20 | Cc1ccc2nc(NC(=O)C3CCN(S(=O)(=O)c4cccnc4)CC3)sc2c1 [Compound 39] |  |  |  | 1 (1-<20%) |  | 7.64 µM | 
21 | Cn1c(SCc2nc(-c3ccc(Cl)cc3)no2)nnc1-c1ccncc1 [Compound 40] |  |  |  | 1 (1-<20%) | 5 | 7.67 µM | 
22 | O=P(Nc1cccnc1)(Oc1ccccc1Cl)Oc1ccccc1Cl [Compound 41] |  |  |  | 1 (1-<20%) | 5 | 7.73 µM | 
23 | CCc1ccc(-c2cc3c(=O)n(CC(=O)NCc4cccnc4)nc(C)n3n2)cc1 [Compound 42] |  |  |  | 3 (3- 31-40%) | 2 | 7.75 µM | 
24 | O=C(/C(=C/c1ccc(F)cc1)n1cncn1)c1ccc(Cl)cc1Cl [Compound 43] |  |  |  | 3 (3- 31-40%) |  | 7.8 µM | 
25 | O=C(Cc1coc2ccc3ccccc3c12)NCc1cccnc1 [Compound 44] |  |  |  | 2 (2-21-30%) |  | 7.93 µM | 
26 | Cc1ccc(OCCCn2ccnc2)c(C)c1 [Compound 45] |  | 8.01 µM |  | 3 (3- 31-40%) | 5 |  | 
27 | CN(C)C(C/N=C(\S)NCCc1ccccc1)c1cccnc1 (stereo not shown) [Compound 46] |  |  |  | 1 (1-<20%) | 1 | 8.18 µM | 
28 | OC(c1ccccc1)(c1ccccc1)c1c[nH]cn1 [Compound 47] |  |  |  | 2 (2-21-30%) | 3 | 8.22 µM | 
29 | N#C/C(=C\C=C\c1ccccc1)C(=O)NCc1cccnc1 [Compound 49] |  |  |  | 1 (1-<20%) | 3 | 8.26 µM | 
30 | CCCCNC(=O)c1cc(-c2ccncc2)nc2ccccc12 [Compound 50] |  |  |  | 4 (4-41-50%) | 5 | 8.4 µM | 
31 | CCOC(=O)C1=C(N)Oc2ccc3ccccc3c2C1c1cccnc1 (stereo not shown) [Compound 51] |  | 8.58 µM | 2 | 1 (1-<20%) | 2 |  | 
32 | O=C(NCc1cccnc1)/C(=C\c1cccc(Oc2ccccc2)c1)S(=O)(=O)c1ccccc1 [Compound 52] |  |  |  | 5 (5->50% growth inhibition) |  | 8.99 µM | 
33 | CC1=Nc2ncnn2C(c2cccnc2)/C1=C(\O)OC1CCCCC1 (stereo not shown) [Compound 55] |  |  |  | 1 (1-<20%) |  | 9.54 µM | 
